Laboratory results as given in PubChem BioAssay AID328 (DTP/NCI, 2004).
“And” between values parts separate entries of the source, which are not always exact repeats. Equal entries are not always repeated. Toxic doses and inconclusive results are not listed.

Tested on: BDF1 mice, P388 leukemia ip, median survival T/C
Test: NCI In Vivo Anticancer Drug Screen. Data for tumor model P388 Leukemia (intraperitoneal) in B6D2F1 (BDF1) mice
Conditions: endpoint: median survival time, higher = longer survival
Method in brief: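 Survival ratio, drug arm over vehicle arm, in mice with a transplanted tumour.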

[1] = dose: 25.0 mg/kg/injection, schedule: Q01DX009 (ip), vehicle: Klucel (hydroxypropylcellulose) (HPC)
[2] = dose: 12.5 mg/kg/injection, schedule: Q01DX009 (ip), vehicle: Klucel (hydroxypropylcellulose) (HPC)
[3] = dose: 50.0 mg/kg/injection, schedule: Q01DX009 (ip), vehicle: Klucel (hydroxypropylcellulose) (HPC)
[4] = dose: 100.0 mg/kg/injection, schedule: Q01DX009 (ip), vehicle: Klucel (hydroxypropylcellulose) (HPC)
[5] = dose: 12.5 mg/kg/injection, schedule: Q01DX009 (ip), vehicle: saline
[6] = dose: 25.0 mg/kg/injection, schedule: Q01DX009 (ip), vehicle: saline
[7] = dose: 50.0 mg/kg/injection, schedule: Q01DX009 (ip), vehicle: saline

SMILES: CCc1ccc(/C=C/c2ccc(O)c3ncccc23)[n+](C)c1
- T/C (dose: 0.74 mg/kg/injection, schedule: Q01DX009 (ip), vehicle: saline): 100 % of control
- T/C (dose: 1.1 mg/kg/injection, schedule: Q01DX009 (ip), vehicle: saline): 109 % of control
- T/C (dose: 1.7 mg/kg/injection, schedule: Q01DX009 (ip), vehicle: Klucel (hydroxypropylcellulose) (HPC)): 108 % of control
- T/C (dose: 1.7 mg/kg/injection, schedule: Q01DX009 (ip), vehicle: saline): 150 % of control
- T/C (dose: 2.6 mg/kg/injection, schedule: Q01DX009 (ip), vehicle: saline): 160 % of control
- T/C (dose: 4.1 mg/kg/injection, schedule: Q01DX009 (ip), vehicle: Klucel (hydroxypropylcellulose) (HPC)): 122 % of control
- T/C (dose: 8.0 mg/kg/injection, schedule: Q01DX009 (ip), vehicle: Klucel (hydroxypropylcellulose) (HPC)): 150 % of control
- T/C (dose: 8.0 mg/kg/injection, schedule: Q01DX009 (ip), vehicle: saline with Tween-80): 170 % of control
- T/C (dose: 8.0 mg/kg/injection, schedule: Q04DX003 (ip), vehicle: saline): 122 % of control
- T/C (dose: 10.56 mg/kg/injection, schedule: Q01DX009 (ip), vehicle: saline with Tween-80): 154 % of control
- T/C (dose: 16.0 mg/kg/injection, schedule: Q01DX009 (ip), vehicle: Klucel (hydroxypropylcellulose) (HPC)): 170 % of control
- T/C (dose: 16.0 mg/kg/injection, schedule: Q01DX009 (ip), vehicle: saline with Tween-80): 159 % of control and 179 % of control
- T/C (dose: 16.5 mg/kg/injection, schedule: Q01DX009 (ip), vehicle: Klucel (hydroxypropylcellulose) (HPC)): 160 % of control and 166 % of control
- T/C (dose: 24.0 mg/kg/injection, schedule: Q01DX009 (ip), vehicle: saline with Tween-80): 158 % of control
- T/C [1]: 171 % of control and 185 % of control
- T/C (dose: 32.0 mg/kg/injection, schedule: Q01DX009 (ip), vehicle: saline with Tween-80): 179 % of control

SMILES: CN(C)C(C#N)c1c[nH]c2ccccc12 (centres undefined)
- T/C (dose: 6.25 mg/kg/injection, schedule: Q01DX009 (ip), vehicle: Klucel (hydroxypropylcellulose) (HPC)): 105 % of control
- T/C (dose: 6.25 mg/kg/injection, schedule: Q04DX003 (ip), vehicle: Klucel (hydroxypropylcellulose) (HPC)): 109 % of control
- T/C [2]: 100 % of control
- T/C (dose: 12.5 mg/kg/injection, schedule: Q04DX003 (ip), vehicle: Klucel (hydroxypropylcellulose) (HPC)): 100 % of control
- T/C [1]: 94 % of control
- T/C (dose: 25.0 mg/kg/injection, schedule: Q04DX003 (ip), vehicle: Klucel (hydroxypropylcellulose) (HPC)): 100 % of control

SMILES: O=C(O)c1ccc(N=NSc2ncnc3nc[nH]c23)cc1O
- T/C (dose: 1.3 mg/kg/injection, schedule: Q01DX009 (ip), vehicle: saline with Tween-80): 115 % of control
- T/C (dose: 3.0 mg/kg/injection, schedule: Q01DX009 (ip), vehicle: saline with Tween-80): 153 % of control
- T/C (dose: 4.0 mg/kg/injection, schedule: Q01DX009 (ip), vehicle: saline with Tween-80): 150 % of control
- T/C (dose: 6.0 mg/kg/injection, schedule: Q01DX009 (ip), vehicle: saline with Tween-80): 119 % of control and 123 % of control
- T/C (dose: 9.0 mg/kg/injection, schedule: Q01DX009 (ip), vehicle: saline with Tween-80): 123 % of control
- T/C (dose: 12.0 mg/kg/injection, schedule: Q01DX009 (ip), vehicle: saline with Tween-80): 96 % of control
- T/C (dose: 14.5 mg/kg/injection, schedule: Q04DX003 (ip), vehicle: saline with Tween-80): 122 % of control
- T/C (dose: 22.0 mg/kg/injection, schedule: Q04DX003 (ip), vehicle: saline with Tween-80): 122 % of control
- T/C (dose: 25.0 mg/kg/injection, schedule: Q04DX003 (ip), vehicle: saline with Tween-80): 161 % of control
- T/C (dose: 33.0 mg/kg/injection, schedule: Q04DX003 (ip), vehicle: saline with Tween-80): 118 % of control and 119 % of control
- T/C (dose: 50.0 mg/kg/injection, schedule: Q04DX003 (ip), vehicle: saline with Tween-80): 177 % of control
- T/C (dose: 75.0 mg/kg/injection, schedule: Q04DX003 (ip), vehicle: saline with Tween-80): 119 % of control

SMILES: CC(C)C(Br)C(=O)NC(Cc1ccccc1)C(=O)O (centres undefined)
- T/C (dose: 100.0 mg/kg/injection, schedule: Q04DX003 (ip), vehicle: saline with Tween-80): 109 % of control
- T/C (dose: 200.0 mg/kg/injection, schedule: Q04DX003 (ip), vehicle: saline with Tween-80): 100 % of control
- T/C (dose: 400.0 mg/kg/injection, schedule: Q04DX003 (ip), vehicle: saline with Tween-80): 95 % of control

SMILES: COCCOC1=C(N2CC2)C(=O)C(OCCOC)=C(N2CC2)C1=O
- T/C (dose: 0.26 mg/kg/injection, schedule: Q01DX009 (ip), vehicle: saline): 99 % of control
- T/C (dose: 0.4 mg/kg/injection, schedule: Q01DX009 (ip), vehicle: saline): 108 % of control
- T/C (dose: 0.88 mg/kg/injection, schedule: Q01DX009 (ip), vehicle: saline): 163 % of control
- T/C (dose: 0.88 mg/kg/injection, schedule: Q04DX003 (ip), vehicle: saline): 121 % of control
- T/C (dose: 0.9 mg/kg/injection, schedule: Q01DX009 (ip), vehicle: saline): 108 % of control
- T/C (dose: 1.0 mg/kg/injection, schedule: Q01DX009 (ip), vehicle: saline): 171 % of control and 180 % of control
- T/C (dose: 1.32 mg/kg/injection, schedule: Q01DX009 (ip), vehicle: saline): 209 % of control
- T/C (dose: 1.32 mg/kg/injection, schedule: Q04DX003 (ip), vehicle: saline): 113 % of control
- T/C (dose: 2.0 mg/kg/injection, schedule: Q01DX009 (ip), vehicle: saline): 223 % of control and 263 % of control and 220 % of control
- T/C (dose: 3.0 mg/kg/injection, schedule: Q01DX009 (ip), vehicle: saline): 231 % of control
- T/C (dose: 3.0 mg/kg/injection, schedule: Q04DX003 (ip), vehicle: saline): 152 % of control
- T/C (dose: 3.3 mg/kg/injection, schedule: Q04DX003 (ip), vehicle: saline): 186 % of control
- T/C (dose: 4.0 mg/kg/injection, schedule: Q01DX009 (ip), vehicle: saline): 109 % of control and 115 % of control
- T/C (dose: 5.0 mg/kg/injection, schedule: Q04DX003 (ip), vehicle: saline): 209 % of control
- T/C (dose: 6.25 mg/kg/injection, schedule: Q04DX003 (ip), vehicle: saline): 236 % of control
- T/C (dose: 7.5 mg/kg/injection, schedule: Q04DX003 (ip), vehicle: saline): 272 % of control
- T/C (dose: 12.5 mg/kg/injection, schedule: Q04DX003 (ip), vehicle: saline): 118 % of control

SMILES: CN(C)c1ccc2c(Cl)cc(Cl)nc2c1
- T/C [2]: 109 % of control
- T/C [1]: 109 % of control
- T/C [3]: 111 % of control
- T/C [4]: 117 % of control
- T/C (dose: 200.0 mg/kg/injection, schedule: Q01DX009 (ip), vehicle: Klucel (hydroxypropylcellulose) (HPC)): 107 % of control

SMILES: O=[N+]([O-])c1cnc2ccnn2c1
- T/C [2]: 100 % of control
- T/C [1]: 100 % of control
- T/C [3]: 100 % of control
- T/C [4]: 95 % of control

SMILES: ClC(Cl)(Cl)SSC(=Nc1ccccc1)SSC(Cl)(Cl)Cl
- T/C (dose: 50.0 mg/kg/injection, schedule: Q01DX009 (ip), vehicle: saline with Tween-80): 106 % of control
- T/C (dose: 100.0 mg/kg/injection, schedule: Q01DX009 (ip), vehicle: saline with Tween-80): 117 % of control

SMILES: CC(C)CSP(=S)(c1cc(Cl)ccc1Cl)c1cc(Cl)ccc1Cl
- T/C (dose: 50.0 mg/kg/injection, schedule: Q01DX009 (ip), vehicle: other): 102 % of control
- T/C (dose: 100.0 mg/kg/injection, schedule: Q01DX009 (ip), vehicle: other): 101 % of control
- T/C (dose: 200.0 mg/kg/injection, schedule: Q01DX009 (ip), vehicle: other): 105 % of control

SMILES: CCc1ccc(C(=O)NN)cc1
- T/C (dose: 6.25 mg/kg/injection, schedule: Q01DX009 (ip), vehicle: saline): 100 % of control
- T/C [5]: 97 % of control
- T/C [6]: 103 % of control
- T/C (dose: 25.0 mg/kg/injection, schedule: Q04DX003 (ip), vehicle: saline): 94 % of control
- T/C [7]: 100 % of control
- T/C (dose: 50.0 mg/kg/injection, schedule: Q04DX003 (ip), vehicle: saline): 92 % of control
- T/C (dose: 100.0 mg/kg/injection, schedule: Q01DX009 (ip), vehicle: saline): 124 % of control
- T/C (dose: 100.0 mg/kg/injection, schedule: Q04DX003 (ip), vehicle: saline): 94 % of control
- T/C (dose: 200.0 mg/kg/injection, schedule: Q01DX009 (ip), vehicle: saline): 90 % of control
- T/C (dose: 200.0 mg/kg/injection, schedule: Q04DX003 (ip), vehicle: saline): 94 % of control

SMILES: Cc1noc(C)c1CON
- T/C [5]: 91 % of control
- T/C [6]: 91 % of control
- T/C [7]: 95 % of control

SMILES: COC1C(O)C(OC2CCC3(C)C(CCC4C3CCC3(C)C(C5=CC(=O)OC5)CCC43O)C2)OC(C)C1OC(C)=O (centres undefined)
- T/C (dose: 9.6 mg/kg/injection, schedule: Q01DX009 (ip), vehicle: saline with Tween-80): 115 % of control
- T/C (dose: 22.0 mg/kg/injection, schedule: Q01DX009 (ip), vehicle: saline with Tween-80): 108 % of control
- T/C (dose: 33.0 mg/kg/injection, schedule: Q01DX009 (ip), vehicle: saline with Tween-80): 100 % of control
